Test system: rat and human α9α10 nAChRs
Test: ACh-evoked currents in Xenopus oocytes expressing rat or human α9α10 nAChRs
Assay type: cell-based
Conditions: 100 µM ACh

CC(=O)OCC[N+](C)(C)C [ACh, Acetylcholine chloride]
ACh-evoked current, rat vs human α9α10 (in words): generally evoked larger currents in Xenopus oocytes expressing rat α9α10 nAChRs than in oocytes expressing human α9α10 nAChRs
